From PubChem BioAssay (NCI)
“And” between values parts separate entries of the source, which are not always exact repeats. Equal values may be shown once.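 Test compounds were applied to cells in 96-well plates for 48 hours at 5 doses. GI50: concentration for 50% inhibition of growth. The concentration for full growth arrest is given as TGI.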

Legend:
Test in all cases: NCI-60 cell line screen, 48 h
786-0 renal = tested on: 786-0 renal
A549 NSCLC = tested on: A549 NSCLC
ACHN renal = tested on: ACHN renal
CAKI-1 renal = tested on: CAKI-1 renal
HCT-116 colon = tested on: HCT-116 colon
M14 melanoma = tested on: M14 melanoma
NCI-H522 lung = tested on: NCI-H522 lung
PC-3 prostate = tested on: PC-3 prostate
TK-10 renal = tested on: TK-10 renal
UACC-62 melanoma = tested on: UACC-62 melanoma

Row | SMILES | GI50 (786-0 renal) | TGI (786-0 renal) | GI50 (A549 NSCLC) | TGI (A549 NSCLC) | GI50 (ACHN renal) | TGI (ACHN renal) | GI50 (CAKI-1 renal) | TGI (CAKI-1 renal) | GI50 (HCT-116 colon) | TGI (HCT-116 colon) | GI50 (M14 melanoma) | TGI (M14 melanoma) | GI50 (NCI-H522 lung) | TGI (NCI-H522 lung) | GI50 (PC-3 prostate) | TGI (PC-3 prostate) | GI50 (TK-10 renal) | TGI (TK-10 renal) | GI50 (UACC-62 melanoma) | TGI (UACC-62 melanoma)
1 | Cc1cc(Nc2ncc(Cl)c(Nc3ccccc3S(=O)(=O)C(C)C)n2)c(OC(C)C)cc1C1CCNCC1 | 1.56 µM | 3.01 µM | 1.34 µM | 2.69 µM | 1.59 µM and 1.33 µM | 2.94 µM and 2.61 µM | 1.87 µM | 5.29 µM | 1.24 µM | 2.62 µM | 1.37 µM | 2.9 µM | 1.52 µM | 3.06 µM | 1.42 µM and 0.793 µM | 2.92 µM and 2.07 µM | 1.42 µM and 1.33 µM | 2.76 µM and 2.61 µM | 1.49 µM and 1.17 µM | 2.84 µM and 2.43 µM
2 | CCCCCCCCO/N=C\c1c2c(O)c3c(O)c(C)c4c(c3c1O)C(=O)C(C)(O/C=C\C(OC)C(C)C(OC(C)=O)C(C)C(O)C(C)C(O)C(C)/C=C\C=C(\C)C(=O)N2)O4 (stereo unspecified) | 1.13 µM | 2.77 µM | 1.73 µM | 6.42 µM | 1.78 µM | 6.58 µM | 1.33 µM | 5.04 µM | 1.06 µM | 2.19 µM | 1.57 µM | 5.4 µM |  |  | 1.82 µM | 7.02 µM |  |  | 1.02 µM | 2.92 µM
3 | Nc1nc(F)nc2c1ncn2C1OC(COP(=O)(O)O)C(O)C1O (stereo unspecified) |  | 384 µM |  | 511 µM |  | 247 µM |  | > 68.4 µM |  | 325 µM |  | 66.7 µM |  | 740 µM |  | 322 µM |  | 773 µM |  | 247 µM
4 | C/C=C/C/C=C/CCC(=O)C1OC1C(N)=O (stereo unspecified) |  | 25.8 µM |  | 56 µM |  | 28.5 µM |  | 29.8 µM |  | 28.2 µM |  | 29.2 µM |  | 25.8 µM |  | 28.7 µM |  | 25.9 µM |  | 29.3 µM
5 | CC(=O)NC(Cc1c[nH]c2ccccc12)C(=O)O (stereo unspecified) |  | > 100 µM |  | > 100 µM |  | > 100 µM |  | > 100 µM |  | > 100 µM |  | > 100 µM |  | > 100 µM |  | > 100 µM |  | > 100 µM |  | > 100 µM
6 | CC1=C([Se]CC(OC(=O)[C@@H](CSSC(C)(C)C)NC(=O)C(C)(C)C)C(=O)NCCCCCC(=O)OCc2ccccc2)C(=O)c2ccccc2C1=O (stereo partly specified) | 2.1 µM | 3.66 µM | 2.11 µM | 5.42 µM | 2.16 µM | 4.94 µM | 2.18 µM | 4.52 µM | 1.53 µM | 3.68 µM | 2.05 µM | 4.04 µM | 1.69 µM | 3.21 µM | 1.5 µM | 3.63 µM | 2.42 µM | 4.43 µM | 1.96 µM | 3.99 µM
7 | OCC1OC(O)C(N=Cc2ccc3c(c2)OCO3)C(O)C1O (stereo unspecified) |  | > 100 µM |  | > 100 µM |  | > 100 µM |  | > 100 µM |  | > 100 µM |  | > 100 µM |  | > 100 µM |  | > 100 µM |  | > 100 µM |  | > 100 µM
8 | N#Cc1c(SCc2ccccc2)nc2[nH]c(=S)[nH]c(=S)c2c1-c1ccco1 | 42.6 µM | > 100 µM | 64.1 µM | > 100 µM | > 100 µM | > 100 µM | 42.9 µM | > 100 µM | 21.6 µM | > 100 µM | > 100 µM | > 100 µM | > 100 µM | > 100 µM | 0.448 µM | 20.5 µM | 15.2 µM | 72.1 µM | 21.6 µM | 46.6 µM
9 | CCOC(=O)c1ccc2[nH]c(Cc3[nH]c4ccc(C(=O)OCC)cc4c3C)c(C)c2c1 | 4.51 µM | 31.4 µM | 1.05 µM | 5.87 µM | 2.28 µM | 15.8 µM | 1.55 µM | 22.9 µM | 0.556 µM | 8.58 µM | 5.98 µM | 34.1 µM | 3.27 µM | 19.2 µM | 1.46 µM | 13.7 µM | 4.28 µM | 17.4 µM | 2.21 µM | 25.2 µM
10 | O=S(=O)(NCCNc1cc(-c2cn(-c3ccccc3)nc2-c2cccc(O)c2)ccn1)c1ccc(F)cc1 | 2.49 µM | 14.3 µM | 3.43 µM | 12.1 µM | 2.32 µM | 7.34 µM | 3.89 µM | > 100 µM | 2.86 µM | 10.4 µM | 2.27 µM | 6.41 µM | 1.49 µM | 3.79 µM | 2.29 µM | 10.3 µM | 3.58 µM | 9.84 µM | 1.99 µM | 4.73 µM
11 | COc1cc2c(cc1OCCCCCN1CCN(c3cc(=O)oc4c(C)c(OC)ccc34)CC1)N=C[C@@H]1CCCN1C2=O | < 0.01 µM |  | 0.0211 µM | 15.4 µM | 0.0434 µM | 0.256 µM | 0.083 µM | 0.537 µM |  |  | 0.0101 µM | 0.0225 µM | < 0.01 µM | < 0.0352 µM | < 0.01 µM | 0.408 µM | < 0.0129 µM | 13.3 µM | < 0.01 µM | 0.0147 µM
12 | COc1ccc2c(c1)/C(=C/c1c(-c3ccc(C)cc3)nc3sc(C)cn13)C(=O)N2 | 6.68 µM | 50.2 µM | 12.5 µM | > 100 µM |  |  | 35.3 µM | > 100 µM | 4.71 µM | 18.7 µM | 13.2 µM | 59.1 µM | 13.5 µM | > 100 µM | 4.61 µM | > 100 µM | 7.93 µM | > 100 µM | 13.1 µM | 32.5 µM
13 | O=C(c1cccs1)c1c(C(F)(F)F)n([O-])c2cc(C(F)(F)F)ccc2[n+]1=O | 0.171 µM | 0.319 µM | 0.242 µM | 0.69 µM | 0.159 µM | 0.303 µM | 0.22 µM | 0.628 µM | 0.0575 µM | 0.176 µM | 0.554 µM | 1.19 µM | 0.294 µM | 0.738 µM | 0.136 µM | 0.281 µM | 0.678 µM | 1.85 µM | 0.462 µM | 1.28 µM
14 | COc1ccc(/C(Cl)=C(\C=O)c2cc(OC)c(OC)c(OC)c2)cc1OC |  | > 100 µM |  | > 100 µM |  | > 100 µM |  | > 100 µM |  | > 100 µM |  | > 100 µM |  | 48.8 µM |  | > 100 µM |  | > 100 µM |  | > 100 µM
